Measurements: US20200283384A1, “ANTIBACTERIAL COMPOUNDS AND METHODS OF USE THEREOF” (Wayne State University, priority 2016, published 2020)
In brackets after ≈: the same amount, converted by molar mass. Read-outs that look alike come from different tables or passages of the source.

How the values were obtained:
[1] = system: 24 strains of S. aureus (SA1-SA24); experiment: Broth micro-dilution MIC against 24 strains of S. aureus; assay type: cell-based; conditions: for MIC: Staphylococcus aureus, read-out: Compound MIC
Description: Compounds were tested for their anti-bacterial activity against 56 clinical isolates including 24 clinical isolates of methicillin resistant S. aureus (MRSA) and methicillin-susceptible S. aureus (MSSA), 8 strains of Enterococcus, 8 strains of Acinetobacter baumannii, 8 strains of Klebsiella pneumoniae, and 8 strains of Pseudomonas aeruginosa using a standard broth micro-dilution method as recommended by the Clinical and Laboratory Standard Institute (CLSI, M100, s23).
HN18 HN19, and HN34 were tested by a broth micro-dilution method to determine their minimal inhibitory concentration (MIC) against 24 strains of S. aureus (SA1-SA24) (Table 2). […]. Furthermore, the results for HN18 and HN34 were consistent across four repeated experiments. […]

[2] = system: Methicillin-resistant S. aureus strains; S. aureus (K1902); experiment: MIC and SIC in 96 well microplates (plasmid curing study); assay type: cell-based, Staphylococcus aureus
Description: Plasmid curing activity of HN18 and HN34 was evaluated. Methicillin-resistant S. aureus strains were sub-cultured on blood agar plates to obtain isolated colonies, incubated at 35° C. in a CO2 incubator. The fresh overnight bacterial inoculum was prepared by re-suspending a few isolated colonies in a tube containing 5 ml of saline. […] The sub-inhibitory concentration (SIC) is defined as the concentration before MIC (in a serial dilution method where antibiotic concentration decreases by half from each tube to the next one).
Plasmid curing activity of HN18 and HN34 was also evaluated in S. aureus (K1902) which is known to harbor a 5 kb plasmid with a chloramphenicol resistance gene. Along with the KSA reference strain, the plasmid curing activity was repeated for SA1 and SA2 strains which are MRSA (Table 4).

[3] = system: S. aureus clinical isolates; experiment: Synergistic effect with oxacillin (oxacillin MIC alone and in presence of SIC); assay type: cell-based, Staphylococcus aureus
Description: The synergistic effect (interaction) of HN18 and HN34 with different antibiotics against S. aureus clinical isolates was studied. The oxacillin MIC values of 8 clinical isolates of Staphylococcus aureus were determined. The oxacillin MIC of the same isolates were also determined after they were exposed to SIC of HN18, HN34 (Table 5). […] Column 2 and 3 show the oxacillin MIC value of the same isolates in presence of SIC of HN18 and HN34 respectively.

[4] = Table 4, KSA (S. aureus K1902), experiment I
[5] = Table 4, KSA (S. aureus K1902), experiment II
[6] = Table 4, isolate SA1, experiment II
[7] = Table 4, isolate SA2, experiment I
[8] = Table 4, isolate SA2, experiment II

## Cc1[nH]c2ccccc2c1C(c1ccc(F)c(F)c1)c1c(C)[nH]c2ccccc12 [HN34]
[1]; 24 strains SA1-SA24, broth micro-dilution
  Effect against the panel of S. aureus strains: effective
[1]; isolate SA1, experiment I
  MIC: 1 µg/mL (≈ 2.59 µM)
[1]; isolate SA1, experiment II
  MIC: 2 µg/mL (≈ 5.18 µM)
[1]; isolate SA1, experiment III
  MIC: 1 µg/mL (≈ 2.59 µM)
[1]; isolate SA1, experiment IV
  MIC: 1 µg/mL (≈ 2.59 µM)
[1]; isolate SA2, experiment I
  MIC: 2 µg/mL (≈ 5.18 µM)
[1]; isolate SA2, experiment II
  MIC: 2 µg/mL (≈ 5.18 µM)
[1]; isolate SA2, experiment III
  MIC: 1 µg/mL (≈ 2.59 µM)
[1]; isolate SA2, experiment IV
  MIC: 1 µg/mL (≈ 2.59 µM)
[1]; isolate SA3, experiment I
  MIC: 2 µg/mL (≈ 5.18 µM)
[1]; isolate SA3, experiment II
  MIC: 2 µg/mL (≈ 5.18 µM)
[1]; isolate SA3, experiment III
  MIC: 2 µg/mL (≈ 5.18 µM)
[1]; isolate SA3, experiment IV
  MIC: 2 µg/mL (≈ 5.18 µM)
[1]; isolate SA4, experiment I
  MIC: 2 µg/mL (≈ 5.18 µM)
[1]; isolate SA4, experiment II
  MIC: 2 µg/mL (≈ 5.18 µM)
[1]; isolate SA4, experiment III
  MIC: 2 µg/mL (≈ 5.18 µM)
[1]; isolate SA5, experiment I
  MIC: 1 µg/mL (≈ 2.59 µM)
[1]; isolate SA5, experiment II
  MIC: 2 µg/mL (≈ 5.18 µM)
[1]; isolate SA5, experiment III
  MIC: 1 µg/mL (≈ 2.59 µM)
[1]; isolate SA5, experiment IV
  MIC: 2 µg/mL (≈ 5.18 µM)
[1]; isolate SA6, experiment I
  MIC: 1 µg/mL (≈ 2.59 µM)
[1]; isolate SA6, experiment II
  MIC: 1 µg/mL (≈ 2.59 µM)
[1]; isolate SA6, experiment III
  MIC: 1 µg/mL (≈ 2.59 µM)
[1]; isolate SA6, experiment IV
  MIC: 1 µg/mL (≈ 2.59 µM)
[1]; isolate SA7, experiment I
  MIC: 1 µg/mL (≈ 2.59 µM)
[1]; isolate SA7, experiment II
  MIC: 1 µg/mL (≈ 2.59 µM)
[1]; isolate SA7, experiment III
  MIC: 1 µg/mL (≈ 2.59 µM)
[1]; isolate SA7, experiment IV
  MIC: 1 µg/mL (≈ 2.59 µM)
[1]; isolate SA8, experiment I
  MIC: 2 µg/mL (≈ 5.18 µM)
[1]; isolate SA8, experiment II
  MIC: 2 µg/mL (≈ 5.18 µM)
[1]; isolate SA8, experiment III
  MIC: 2 µg/mL (≈ 5.18 µM)
[1]; isolate SA8, experiment IV
  MIC: 2 µg/mL (≈ 5.18 µM)
[1]; isolate SA9, experiment I
  MIC: 0.5 µg/mL (≈ 1.29 µM)
[1]; isolate SA10, experiment I
  MIC: 1 µg/mL (≈ 2.59 µM)
[1]; isolate SA11, experiment I
  MIC: 1 µg/mL (≈ 2.59 µM)
[1]; isolate SA12, experiment I
  MIC: 1 µg/mL (≈ 2.59 µM)
[1]; isolate SA13, experiment I
  MIC: 1 µg/mL (≈ 2.59 µM)
[1]; isolate SA14, experiment I
  MIC: 0.25 µg/mL (≈ 0.647 µM)
[1]; isolate SA15, experiment I
  MIC: 1 µg/mL (≈ 2.59 µM)
[1]; isolate SA16, experiment I
  MIC: 1 µg/mL (≈ 2.59 µM)
[1]; isolate SA17, experiment I
  MIC: 1 µg/mL (≈ 2.59 µM)
[1]; isolate SA18, experiment I
  MIC: 1 µg/mL (≈ 2.59 µM)
[1]; isolate SA19, experiment I
  MIC: 1 µg/mL (≈ 2.59 µM)
[1]; isolate SA20, experiment I
  MIC: 2 µg/mL (≈ 5.18 µM)
[1]; isolate SA21, experiment I
  MIC: 1 µg/mL (≈ 2.59 µM)
[1]; isolate SA22, experiment I
  MIC: 1 µg/mL (≈ 2.59 µM)
[1]; isolate SA23, experiment I
  MIC: 1 µg/mL (≈ 2.59 µM)
[1]; isolate SA24, experiment I
  MIC: 1 µg/mL (≈ 2.59 µM)
[2]; Table 3, isolate SA1 (MRSA)
  SIC: 1 µg/mL
[2]; Table 3, isolate SA2 (MRSA)
  SIC: 1 µg/mL
[2]; Table 3, isolate SA3 (MRSA)
  SIC: 1 µg/mL
[2]; Table 3, isolate SA4 (MRSA)
  SIC: 1 µg/mL
[2]; Table 3, isolate SA5 (MRSA)
  SIC: 1 µg/mL
[2]; Table 3, isolate SA6 (MRSA)
  SIC: 0.5 µg/mL
[2]; Table 3, isolate SA7 (MRSA)
  SIC: 0.5 µg/mL
[2]; Table 3, isolate SA8 (MRSA)
  SIC: 1 µg/mL
[2]; [4]
  MIC: 2 µg/mL (≈ 5.18 µM)
  SIC: 1 µg/mL
[2]; [5]
  MIC: 2 µg/mL (≈ 5.18 µM)
  SIC: 1 µg/mL
[2]; Table 4, isolate SA1, experiment I
  SIC: 1 µg/mL
[2]; [6]
  MIC: 2 µg/mL (≈ 5.18 µM)
  SIC: 1 µg/mL
[2]; [7]
  MIC: 2 µg/mL (≈ 5.18 µM)
  SIC: 1 µg/mL
[2]; [8]
  MIC: 2 µg/mL (≈ 5.18 µM)
  SIC: 1 µg/mL
[3]; S. aureus clinical isolates, compound at SIC
  Synergistic activity in combination with oxacillin: did not show synergistic activity
[3]; isolate SA3, experiment I
  Oxacillin MIC in presence of SIC of the compound (1 μg/ml): >16 µg/mL
[3]; isolate SA3, experiment II
  Oxacillin MIC in presence of SIC of the compound (1 μg/ml): >16 µg/mL
[3]; isolate SA4, experiment I
  Oxacillin MIC in presence of SIC of the compound (1 μg/ml): >16 µg/mL
[3]; isolate SA4, experiment II
  Oxacillin MIC in presence of SIC of the compound (1 μg/ml): >16 µg/mL
[3]; isolate SA5, experiment I
  Oxacillin MIC in presence of SIC of the compound (1 μg/ml): 16 µg/mL
[3]; isolate SA5, experiment II
  Oxacillin MIC in presence of SIC of the compound (1 μg/ml): >16 µg/mL
[3]; isolate SA9, experiment I
  Oxacillin MIC in presence of SIC of the compound (1 μg/ml): >16 µg/mL
[3]; isolate SA9, experiment II
  Oxacillin MIC in presence of SIC of the compound (1 μg/ml): >16 µg/mL
[3]; isolate SA10, experiment I
  Oxacillin MIC in presence of SIC of the compound (1 μg/ml): 16 µg/mL
[3]; isolate SA10, experiment II
  Oxacillin MIC in presence of SIC of the compound (1 μg/ml): 16 µg/mL
[3]; isolate SA11, experiment I
  Oxacillin MIC in presence of SIC of the compound (1 μg/ml): 16 µg/mL
[3]; isolate SA11, experiment II
  Oxacillin MIC in presence of SIC of the compound (1 μg/ml): 8 µg/mL
[3]; isolate SA15, experiment I
  Oxacillin MIC in presence of SIC of the compound (1 μg/ml): 16 µg/mL
[3]; isolate SA15, experiment II
  Oxacillin MIC in presence of SIC of the compound (1 μg/ml): >16 µg/mL
[3]; isolate SA18, experiment I
  Oxacillin MIC in presence of SIC of the compound (1 μg/ml): >16 µg/mL
[3]; isolate SA18, experiment II
  Oxacillin MIC in presence of SIC of the compound (1 μg/ml): >16 µg/mL
